In data set [1] the test system is Rattus norvegicus. Nature of the data set: Toxicity in po dosed Sprague-Dawley rat assessed as reduction in fasting plasma glucose level administered for 60 mins measured over first hour prior to OGTT. The conditions noted are these: in vivo, 1 h. The format is organism-based.
A short description of data set [2]: Selectivity ratio of EC50 for rat glucokinase to EC50 for human glucokinase.
Data set [3] deals with Rattus norvegicus. Nature of the data set: Toxicity in Sprague-Dawley rat assessed as hypoglycemic level at 30 to 100 mg/kg, po administered for 60 mins measured over first hour prior to OGTT. The format is organism-based. Details: dose 30-100 mg/kg, route oral. Conditions: in vivo, 1 h.
Data set [4] concerns the target T1, Hexokinase-4 (Homo sapiens, UniProt P35557).
T1 sequence (P35557 whole entry): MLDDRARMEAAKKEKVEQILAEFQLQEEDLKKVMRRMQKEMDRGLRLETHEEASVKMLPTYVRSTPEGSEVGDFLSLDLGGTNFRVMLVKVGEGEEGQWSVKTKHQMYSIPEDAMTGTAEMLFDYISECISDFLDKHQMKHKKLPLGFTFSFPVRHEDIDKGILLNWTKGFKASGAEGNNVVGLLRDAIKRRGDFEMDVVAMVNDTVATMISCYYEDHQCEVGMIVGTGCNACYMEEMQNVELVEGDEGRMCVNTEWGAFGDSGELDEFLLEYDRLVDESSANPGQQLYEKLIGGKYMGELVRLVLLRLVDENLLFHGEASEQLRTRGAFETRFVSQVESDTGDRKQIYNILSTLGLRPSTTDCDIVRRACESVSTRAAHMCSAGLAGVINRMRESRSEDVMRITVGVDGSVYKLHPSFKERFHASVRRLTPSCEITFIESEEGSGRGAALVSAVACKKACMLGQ
Description: Activation of recombinant human glucokinase assessed as formation of glucose-6-phosphate by G6PDH/NADP coupled assay

The test system of data set [5] is Rattus norvegicus. Nature of the data set: Antidiabetic activity in po dosed Sprague-Dawley rat assessed as reduction of post-prandial glucose excursion administered for 60 mins followed by glucose challenge measured up to 120 mins by OGTT. The format is functional, organism-based.
Data set [6] addresses T2, Hexokinase-4 (Rattus norvegicus, UniProt P17712).
T2 sequence (P17712 whole entry): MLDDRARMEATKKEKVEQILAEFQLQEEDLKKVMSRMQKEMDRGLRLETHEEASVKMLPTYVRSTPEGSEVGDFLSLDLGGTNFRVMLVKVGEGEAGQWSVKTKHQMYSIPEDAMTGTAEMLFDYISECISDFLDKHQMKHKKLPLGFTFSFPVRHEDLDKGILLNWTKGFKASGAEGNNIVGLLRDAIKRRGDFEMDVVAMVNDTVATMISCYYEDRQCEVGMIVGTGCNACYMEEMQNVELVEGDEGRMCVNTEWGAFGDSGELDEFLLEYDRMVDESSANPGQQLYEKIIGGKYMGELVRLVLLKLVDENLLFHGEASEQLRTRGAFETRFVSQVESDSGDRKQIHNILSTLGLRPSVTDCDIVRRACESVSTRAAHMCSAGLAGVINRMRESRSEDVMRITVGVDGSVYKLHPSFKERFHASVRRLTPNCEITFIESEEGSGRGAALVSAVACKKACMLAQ
Nature of the data set: Activation of rat glucokinase.

A short description of data set [7]: Clearance in cynomolgus monkey at 0.5 mg/kg, iv and 3 mg/kg, po. The format is ADME, organism-based, Macaca fascicularis. The conditions noted are these: in vivo.
Data set [8] can be described thus: Intrinsic clearance in human liver microsomes. The format is ADME. Conditions: read-out: CLH. Background: Liver microsomes are vesicles of endoplasmic reticulum, rich in cytochrome P450 enzymes.
Data set [9] can be described thus: Volume of distribution at steady state in cynomolgus monkey at 0.5 mg/kg, iv and 3 mg/kg, po. Conditions: in vivo, read-out: Vdss. The format is ADME, organism-based, Macaca fascicularis.
Data set [10] concerns Rattus norvegicus. Nature of the data set: Volume of distribution at steady state in female Sprague-Dawley rat at 1 mg/kg, iv and po. Details: dose 1 mg/kg, route oral. The format is ADME, organism-based. Conditions: in vivo.
Data set [11] in a line: Drug excretion in Sprague-Dawley rat urine assessed as parent compound level at 1 mg/kg, iv. Conditions: read-out: Drug excretion. The format is ADME, organism-based. Details: dose 1 mg/kg, route intravenous.
A short description of data set [12]: Oral bioavailability in female Sprague-Dawley rat at 1 mg/kg. The format is ADME, organism-based. Conditions: in vivo.
The test system of data set [13] is Rattus norvegicus. Nature of the data set: Volume of distribution at steady state in male Sprague-Dawley rat at 1 mg/kg, iv and po. Conditions: in vivo. The format is ADME, organism-based. Details: dose 1 mg/kg, route oral.
For data set [14], the system named is Pancreatic islet. Nature of the data set: Induction of 9 to 13 mM glucose-induced insulin secretion in rat dispersed pancreatic islet static culture at 0.4 to 12 uM. The format is functional.
Data set [15] in a line: Oral bioavailability in Beagle dog at 5 mg/kg. The format is ADME, organism-based, Canis lupus familiaris. Conditions: in vivo.
Data set [16] has as its system Pancreatic islet. Nature of the data set: Induction of 3 to 5 mM glucose-induced insulin secretion in rat dispersed pancreatic islet static culture at 4 to 12 uM. The format is functional.
Data set [17] is described as follows: Half life in male Sprague-Dawley rat at 1 mg/kg, iv and po. The format is ADME, organism-based. On the set-up: dose 1 mg/kg, route oral. Conditions: in vivo.
Data set [18] in a line: Kinetic solubility of the compound. The format is physicochemical. The conditions noted are these: read-out: Kinetic_solubility.
A short description of data set [19]: Half life in Beagle dog at 0.5 mg/kg, iv and 5 mg/kg, po. The format is ADME, organism-based, Canis lupus familiaris. The conditions noted are these: in vivo.
The nature of data set [20]: Volume of distribution at steady state in Beagle dog at 0.5 mg/kg, iv and 5 mg/kg, po. The format is ADME, organism-based, Canis lupus familiaris. Conditions: in vivo, read-out: Vdss.
A short description of data set [21]: Oral bioavailability in male Sprague-Dawley rat at 1 mg/kg. The format is ADME, organism-based. Conditions: in vivo.
Data set [22] has as its system Pancreatic islet. Nature of the data set: Induction of 3 to 5 mM glucose-induced insulin secretion in rat dispersed pancreatic islet static culture at 0.4 to 1.2 uM. The format is functional.
The nature of data set [23]: Oral bioavailability in cynomolgus monkey at 3 mg/kg. The format is ADME, organism-based, Macaca fascicularis. The conditions noted are these: in vivo.
A short description of data set [24]: Drug excretion in bile duct-cannulated rat bile assessed as parent compound level at 5 mg/kg, iv. The format is ADME, organism-based. On the set-up: dose 5 mg/kg, route intravenous. Conditions: read-out: Drug excretion.
Data set [25] is described as follows: Half life in cynomolgus monkey at 0.5 mg/kg, iv and 3 mg/kg, po. The format is ADME, organism-based, Macaca fascicularis. Conditions: in vivo.
The subject of data set [26] is Pancreatic islet. Nature of the data set: Induction of > 22 mM glucose-induced insulin secretion in rat dispersed pancreatic islet static culture at 0.4 to 12 uM. The format is functional.
Data set [27] is described as follows: Clearance in Beagle dog at 0.5 mg/kg, iv and 5 mg/kg, po. The format is ADME, organism-based, Canis lupus familiaris. Conditions: in vivo.
Data set [28] can be described thus: Half life in female Sprague-Dawley rat at 1 mg/kg, iv and po. The format is ADME, organism-based. Details: dose 1 mg/kg, route oral. Conditions: in vivo.

Converted amounts (≈) assume the structure as drawn. The source made the active and inactive calls. The calls are words filed in the database; no cut-off is given here.

In general, EC50 refers to the concentration at which the effect is half-maximal. As to `Cn1ccc(NC(=O)c2cc(Oc3ccc(C(=O)N4CCC4)c(F)c3)c3c(c2)OC(C)(C)C3)n1`, the Activity result in data set [1] is “Dose-dependent effect”; in data set [3], below 60 mg/dL; in data set [5], “Dose-dependent effect”. Further, the Ratio EC50 in data set [2] is below 4. In addition, the EC50 is 27 nM in data set [4] and 50 nM in data set [6].
By bioavailability is commonly meant dose-corrected exposure relative to a reference, in per cent. As usually defined, the half-life is how long it takes for the measured level to halve. As for `Cc1cnc(NC(=O)c2cc(Oc3cnc(C(=O)N(C)C)nc3)c3cc(C)oc3c2)cn1` [NERIGLIATIN], the clearance stood at 9.4 mL/min/kg in data set [7] and 2.6 mL/min/kg in [27]. In data set [8], the CLint scaled was below 8 mL/min/kg. Also, the Vd in data set [9] came out at 0.83 L/kg; in [20], 0.65 L/kg. Further, the Vdss amounted to 1.1 L/kg in [10] and 2.1 L/kg in [13]. In addition, the values for the dose excreted in data set [11] and in data set [24] were 0.26% and 2.3%, respectively. Moreover, the bioavailability was determined as 77% in [12], 12% in data set [15], 23% in data set [21] and 78% in data set [23]. Further, the outcome in [14] and in data set [16] was Active. For the same compound, the half-life in [17] is 4.3 h; in [19], 3.3 h; in data set [25], 1.8 h; in [28], 1.2 h. Further, in [18], the solubility kinetic came out at 463 µM (≈ 200 µg/mL). Moreover, the outcome in [22] and in data set [26] was inactive. For the same compound, the Activity result in data set [5] was “Dose-dependent effect”.

The values are drawn from ChEMBL document CHEMBL3217627, “Designing glucokinase activators with reduced hypoglycemia risk: discovery of N,N-dimethyl-5-(2-methyl-6-((5-methylpyrazin-2-yl)-carbamoyl)benzofuran-4-yloxy)pyrimidine-2-carboxamide as a clinical candidate for the treatment of type 2 diabetes mellitus” (Medchemcomm, 2011).
